In ChEMBL document CHEMBL5465560, “Selectivity Literature for EUbOPEN Chemogenomic Library” (2024) one finds % of control, % binding and IC50 data, which are given here for ten molecules.

Bounds are passed on as bounds.

In assay [1] the target is Macrophage colony-stimulating factor 1 receptor (Homo sapiens) (UniProt P07333). As to the kind of experiment: Selectivity interaction (Ambit KINOMEscan and KiNATiv profiling in Jurkat cells) EUB0000090b CSF1R. Format: cell-based. Conditions: at 1 µM.
Assay [2] addresses T1, Dual specificity mitogen-activated protein kinase kinase 3 (Homo sapiens) (UniProt P46734).
T1 sequence (whole entry): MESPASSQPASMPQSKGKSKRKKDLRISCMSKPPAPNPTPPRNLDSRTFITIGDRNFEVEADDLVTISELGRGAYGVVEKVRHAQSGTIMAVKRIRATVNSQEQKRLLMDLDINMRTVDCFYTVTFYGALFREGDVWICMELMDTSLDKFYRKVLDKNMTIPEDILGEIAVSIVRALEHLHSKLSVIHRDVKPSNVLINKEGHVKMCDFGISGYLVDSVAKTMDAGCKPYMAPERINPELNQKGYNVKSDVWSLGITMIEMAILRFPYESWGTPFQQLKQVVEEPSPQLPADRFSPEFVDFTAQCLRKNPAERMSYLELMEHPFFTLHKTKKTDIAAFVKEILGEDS
Description: Selectivity interaction (KinomeScan (DiscoverX)) EUB0000607a MAP2K3. Conditions: at 10 µM.

Assay [3] has as its target T2, Ephrin type-A receptor 1 (Homo sapiens) (UniProt P21709).
T2 sequence (whole entry): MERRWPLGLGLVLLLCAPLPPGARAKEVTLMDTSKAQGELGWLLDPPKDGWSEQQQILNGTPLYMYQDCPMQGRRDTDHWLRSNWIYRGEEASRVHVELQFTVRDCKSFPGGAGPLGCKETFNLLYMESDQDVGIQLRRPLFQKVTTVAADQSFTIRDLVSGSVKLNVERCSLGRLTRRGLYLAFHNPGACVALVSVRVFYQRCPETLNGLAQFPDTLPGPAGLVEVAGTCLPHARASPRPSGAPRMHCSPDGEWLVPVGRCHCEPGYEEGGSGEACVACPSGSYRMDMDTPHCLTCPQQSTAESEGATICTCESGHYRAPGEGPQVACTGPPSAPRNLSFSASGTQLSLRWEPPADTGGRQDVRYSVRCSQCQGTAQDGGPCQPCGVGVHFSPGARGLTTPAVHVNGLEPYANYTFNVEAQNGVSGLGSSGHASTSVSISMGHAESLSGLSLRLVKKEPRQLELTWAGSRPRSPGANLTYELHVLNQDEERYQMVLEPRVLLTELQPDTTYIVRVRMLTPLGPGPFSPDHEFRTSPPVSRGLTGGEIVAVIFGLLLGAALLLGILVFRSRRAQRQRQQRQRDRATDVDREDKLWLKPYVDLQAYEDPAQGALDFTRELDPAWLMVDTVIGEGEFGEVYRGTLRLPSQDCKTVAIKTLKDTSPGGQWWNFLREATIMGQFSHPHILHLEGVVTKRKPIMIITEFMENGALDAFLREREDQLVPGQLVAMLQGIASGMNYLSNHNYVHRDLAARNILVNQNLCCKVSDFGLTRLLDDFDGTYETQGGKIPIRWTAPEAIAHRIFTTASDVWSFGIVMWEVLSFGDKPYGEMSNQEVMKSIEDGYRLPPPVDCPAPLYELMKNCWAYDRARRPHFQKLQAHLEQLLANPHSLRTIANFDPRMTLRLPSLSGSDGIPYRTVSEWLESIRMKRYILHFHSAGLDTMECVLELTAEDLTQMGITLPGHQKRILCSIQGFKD
Description: Selectivity interaction (KinomeScan (DiscoverX)) EUB0000666a EPHA1. Conditions: at 10 µM.

Assay [4] has as its target T3, Uncharacterized serine/threonine-protein kinase SBK3 (Homo sapiens) (UniProt P0C264).
T3 sequence (whole entry): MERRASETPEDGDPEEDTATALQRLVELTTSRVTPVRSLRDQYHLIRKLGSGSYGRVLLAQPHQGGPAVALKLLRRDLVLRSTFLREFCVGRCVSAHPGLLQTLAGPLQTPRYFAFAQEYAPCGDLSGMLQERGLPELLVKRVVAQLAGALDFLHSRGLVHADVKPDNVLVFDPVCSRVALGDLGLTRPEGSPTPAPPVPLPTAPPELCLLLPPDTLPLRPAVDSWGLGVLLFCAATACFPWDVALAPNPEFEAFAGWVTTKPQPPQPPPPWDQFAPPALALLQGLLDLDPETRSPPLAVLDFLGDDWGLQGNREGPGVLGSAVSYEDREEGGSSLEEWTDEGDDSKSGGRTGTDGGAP
Description: Selectivity interaction (KinomeScan (DiscoverX)) EUB0000229b SBK3. The note with it: at 10 µM.

Assay [5] is described as follows: Selectivity interaction (RapidFire MS assay (using full-length mouse protein MGAT2)) EUB0001079a MGAT2.
Assay [6] deals with Ribosomal protein S6 kinase alpha-5 (Homo sapiens) (UniProt O75582). As to the kind of experiment: Selectivity interaction (KinomeScan (DiscoverX)) EUB0001079a RPS6KA5. The note with it: at 1 µM.
Assay [7] has as its target Serine/threonine-protein kinase VRK2 (Homo sapiens) (UniProt Q86Y07). Description: Selectivity interaction (KinomeScan (DiscoverX)) EUB0001619a VRK2. Conditions: at 1 µM.
Assay [8] deals with Mitogen-activated protein kinase 8 (Homo sapiens, UniProt P45983). Conditions: at 10 µM.
The target of assay [9] is T4, Tyrosine-protein kinase ITK/TSK (Homo sapiens) (UniProt Q08881).
T4 sequence (whole entry): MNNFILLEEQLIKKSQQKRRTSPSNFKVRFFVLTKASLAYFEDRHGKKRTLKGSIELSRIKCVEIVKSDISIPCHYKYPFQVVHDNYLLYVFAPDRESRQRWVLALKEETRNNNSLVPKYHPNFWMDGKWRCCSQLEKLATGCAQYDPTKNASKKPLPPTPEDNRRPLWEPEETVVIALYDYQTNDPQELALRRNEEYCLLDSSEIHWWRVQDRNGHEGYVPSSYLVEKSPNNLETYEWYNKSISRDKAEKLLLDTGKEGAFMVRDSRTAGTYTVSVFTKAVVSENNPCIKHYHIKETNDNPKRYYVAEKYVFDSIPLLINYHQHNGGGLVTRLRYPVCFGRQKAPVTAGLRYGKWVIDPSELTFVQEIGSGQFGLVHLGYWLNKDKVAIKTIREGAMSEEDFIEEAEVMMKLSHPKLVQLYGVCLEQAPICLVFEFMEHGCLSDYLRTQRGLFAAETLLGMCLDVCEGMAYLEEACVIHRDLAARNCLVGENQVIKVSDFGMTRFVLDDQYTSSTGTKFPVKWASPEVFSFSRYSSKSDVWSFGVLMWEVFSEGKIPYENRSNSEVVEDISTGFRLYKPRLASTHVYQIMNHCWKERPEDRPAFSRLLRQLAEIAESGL
Description: Selectivity interaction (KinomeScan (DiscoverX)) EUB0000695a ITK. Conditions: at 100 nM.

For assay [10], the target named is Leukocyte tyrosine kinase receptor (Homo sapiens, UniProt P29376). Description: Selectivity interaction (ProQinase) EUB0000171b LTK.
The target in assay [11] is Ribosomal protein S6 kinase alpha-3 (Homo sapiens, UniProt P51812). As to the kind of experiment: Selectivity interaction (ProQinase) EUB0000171b RPS6KA3.
The target of assay [12] is Cyclin-dependent kinase 5 (Homo sapiens, UniProt Q00535). As to the kind of experiment: Selectivity interaction (Kinase panel (enzymatic assay)) EUB0000595a CDK5.
Chain of Cyclin-dependent kinase 5 (Q00535 whole entry): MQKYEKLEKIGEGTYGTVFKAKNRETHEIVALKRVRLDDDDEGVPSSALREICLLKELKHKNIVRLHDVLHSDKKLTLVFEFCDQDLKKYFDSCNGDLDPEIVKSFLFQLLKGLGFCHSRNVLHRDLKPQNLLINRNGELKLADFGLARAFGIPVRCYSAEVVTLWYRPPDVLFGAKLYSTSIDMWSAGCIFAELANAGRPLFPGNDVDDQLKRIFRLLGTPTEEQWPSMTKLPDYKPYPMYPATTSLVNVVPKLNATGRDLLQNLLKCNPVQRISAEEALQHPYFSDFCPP

Chain of Ribosomal protein S6 kinase alpha-3 (P51812 whole entry): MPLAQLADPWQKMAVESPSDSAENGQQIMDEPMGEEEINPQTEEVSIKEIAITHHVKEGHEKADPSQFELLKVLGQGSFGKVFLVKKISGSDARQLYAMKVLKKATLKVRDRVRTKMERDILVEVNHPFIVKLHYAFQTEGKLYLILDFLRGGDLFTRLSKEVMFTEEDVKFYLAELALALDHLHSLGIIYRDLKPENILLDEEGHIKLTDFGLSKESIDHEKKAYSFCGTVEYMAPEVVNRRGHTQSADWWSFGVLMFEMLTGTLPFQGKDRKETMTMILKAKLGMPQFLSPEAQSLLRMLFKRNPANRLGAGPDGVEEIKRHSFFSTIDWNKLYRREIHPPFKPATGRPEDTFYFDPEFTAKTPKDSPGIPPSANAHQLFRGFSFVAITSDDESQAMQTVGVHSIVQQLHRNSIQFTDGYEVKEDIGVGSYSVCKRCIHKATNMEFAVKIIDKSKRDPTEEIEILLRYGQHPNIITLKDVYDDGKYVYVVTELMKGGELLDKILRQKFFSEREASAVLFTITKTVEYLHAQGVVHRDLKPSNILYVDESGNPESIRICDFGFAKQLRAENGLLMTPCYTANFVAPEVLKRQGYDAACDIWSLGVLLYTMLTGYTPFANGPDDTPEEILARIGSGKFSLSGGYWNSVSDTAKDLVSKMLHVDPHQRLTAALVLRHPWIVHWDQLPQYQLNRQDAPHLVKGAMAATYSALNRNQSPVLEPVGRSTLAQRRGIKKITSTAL
Chain of Leukocyte tyrosine kinase receptor (P29376 whole entry): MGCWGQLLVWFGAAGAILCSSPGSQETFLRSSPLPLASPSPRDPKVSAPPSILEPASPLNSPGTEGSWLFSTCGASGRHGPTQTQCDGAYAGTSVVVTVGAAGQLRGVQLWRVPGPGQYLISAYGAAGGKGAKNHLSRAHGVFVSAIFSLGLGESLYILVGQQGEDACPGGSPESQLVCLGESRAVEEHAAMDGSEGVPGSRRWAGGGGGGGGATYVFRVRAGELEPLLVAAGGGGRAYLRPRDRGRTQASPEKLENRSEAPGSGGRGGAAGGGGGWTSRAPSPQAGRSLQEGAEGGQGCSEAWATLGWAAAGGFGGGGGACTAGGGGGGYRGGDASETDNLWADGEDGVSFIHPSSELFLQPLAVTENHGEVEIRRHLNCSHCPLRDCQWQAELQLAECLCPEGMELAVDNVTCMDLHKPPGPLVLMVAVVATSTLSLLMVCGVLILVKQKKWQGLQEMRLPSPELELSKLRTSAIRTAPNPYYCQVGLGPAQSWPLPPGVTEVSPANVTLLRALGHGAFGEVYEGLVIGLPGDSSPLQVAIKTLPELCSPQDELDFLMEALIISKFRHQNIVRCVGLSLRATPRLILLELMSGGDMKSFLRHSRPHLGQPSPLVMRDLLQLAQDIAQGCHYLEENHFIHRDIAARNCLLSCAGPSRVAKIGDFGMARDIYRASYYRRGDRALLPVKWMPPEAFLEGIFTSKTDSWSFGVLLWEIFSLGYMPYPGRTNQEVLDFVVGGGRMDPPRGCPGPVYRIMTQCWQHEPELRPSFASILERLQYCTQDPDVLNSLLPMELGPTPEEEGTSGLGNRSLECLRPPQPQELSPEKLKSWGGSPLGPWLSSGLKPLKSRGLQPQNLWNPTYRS
Chain of Ribosomal protein S6 kinase alpha-5 (Homo sapiens) (O75582 whole entry, looked up): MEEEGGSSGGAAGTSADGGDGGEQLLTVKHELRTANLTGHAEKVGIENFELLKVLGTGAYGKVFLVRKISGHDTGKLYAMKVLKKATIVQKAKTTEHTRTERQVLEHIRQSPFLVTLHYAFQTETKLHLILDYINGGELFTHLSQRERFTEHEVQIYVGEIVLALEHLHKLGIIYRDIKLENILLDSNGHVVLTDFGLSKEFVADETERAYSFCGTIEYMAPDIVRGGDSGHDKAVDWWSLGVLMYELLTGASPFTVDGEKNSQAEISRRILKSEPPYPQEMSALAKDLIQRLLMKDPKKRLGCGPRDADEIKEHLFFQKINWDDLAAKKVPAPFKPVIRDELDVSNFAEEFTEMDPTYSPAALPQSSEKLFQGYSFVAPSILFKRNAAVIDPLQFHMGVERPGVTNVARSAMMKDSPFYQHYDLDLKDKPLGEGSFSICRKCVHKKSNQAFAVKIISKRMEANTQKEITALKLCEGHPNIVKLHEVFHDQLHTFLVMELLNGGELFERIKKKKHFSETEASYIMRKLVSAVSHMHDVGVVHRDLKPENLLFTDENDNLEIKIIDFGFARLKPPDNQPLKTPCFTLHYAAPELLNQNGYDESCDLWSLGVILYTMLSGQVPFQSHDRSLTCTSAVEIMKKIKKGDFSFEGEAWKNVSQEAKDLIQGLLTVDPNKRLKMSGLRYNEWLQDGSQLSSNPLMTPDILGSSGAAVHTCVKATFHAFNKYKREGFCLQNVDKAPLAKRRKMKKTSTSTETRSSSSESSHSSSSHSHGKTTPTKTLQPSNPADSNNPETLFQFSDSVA
Chain of Macrophage colony-stimulating factor 1 receptor (Homo sapiens) (P07333 whole entry): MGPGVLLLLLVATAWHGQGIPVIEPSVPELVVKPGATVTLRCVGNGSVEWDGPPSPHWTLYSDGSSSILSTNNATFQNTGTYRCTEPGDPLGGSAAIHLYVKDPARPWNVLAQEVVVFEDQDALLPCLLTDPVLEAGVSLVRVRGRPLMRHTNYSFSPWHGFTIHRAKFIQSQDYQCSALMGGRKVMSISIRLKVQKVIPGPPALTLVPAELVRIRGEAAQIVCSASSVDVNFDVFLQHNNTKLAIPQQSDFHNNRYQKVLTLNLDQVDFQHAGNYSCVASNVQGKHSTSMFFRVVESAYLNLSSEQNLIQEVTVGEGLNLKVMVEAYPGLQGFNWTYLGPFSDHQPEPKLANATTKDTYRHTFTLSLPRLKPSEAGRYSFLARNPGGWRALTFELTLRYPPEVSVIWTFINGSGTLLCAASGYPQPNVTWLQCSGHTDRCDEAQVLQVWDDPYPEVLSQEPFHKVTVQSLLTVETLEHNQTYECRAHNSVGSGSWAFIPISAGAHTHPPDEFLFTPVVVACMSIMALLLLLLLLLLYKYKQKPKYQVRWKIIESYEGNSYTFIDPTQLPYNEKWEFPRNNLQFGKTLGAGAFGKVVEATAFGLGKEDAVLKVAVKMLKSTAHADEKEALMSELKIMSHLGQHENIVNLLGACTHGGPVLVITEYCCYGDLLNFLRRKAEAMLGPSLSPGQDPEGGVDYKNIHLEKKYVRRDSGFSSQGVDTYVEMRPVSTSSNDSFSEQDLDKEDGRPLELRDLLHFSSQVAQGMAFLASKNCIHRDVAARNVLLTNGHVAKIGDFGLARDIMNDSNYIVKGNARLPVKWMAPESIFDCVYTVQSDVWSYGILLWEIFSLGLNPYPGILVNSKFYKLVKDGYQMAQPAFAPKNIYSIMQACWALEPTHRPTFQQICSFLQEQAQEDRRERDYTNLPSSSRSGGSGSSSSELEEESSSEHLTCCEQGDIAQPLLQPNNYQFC
Chain of Serine/threonine-protein kinase VRK2 (Homo sapiens) (Q86Y07 whole entry): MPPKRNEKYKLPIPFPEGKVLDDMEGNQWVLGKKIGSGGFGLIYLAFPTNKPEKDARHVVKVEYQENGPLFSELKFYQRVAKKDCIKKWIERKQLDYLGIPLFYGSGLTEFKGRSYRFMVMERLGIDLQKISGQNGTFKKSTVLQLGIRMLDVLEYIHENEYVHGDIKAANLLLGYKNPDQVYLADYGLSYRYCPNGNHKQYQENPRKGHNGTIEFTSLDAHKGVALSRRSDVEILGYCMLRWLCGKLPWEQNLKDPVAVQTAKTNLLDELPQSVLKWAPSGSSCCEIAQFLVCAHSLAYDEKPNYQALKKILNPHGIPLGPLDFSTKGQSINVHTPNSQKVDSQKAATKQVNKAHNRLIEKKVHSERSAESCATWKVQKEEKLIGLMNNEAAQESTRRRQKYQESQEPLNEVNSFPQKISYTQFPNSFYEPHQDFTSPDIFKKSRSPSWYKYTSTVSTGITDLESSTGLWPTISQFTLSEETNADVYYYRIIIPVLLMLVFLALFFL
Chain of Mitogen-activated protein kinase 8 (P45983 whole entry): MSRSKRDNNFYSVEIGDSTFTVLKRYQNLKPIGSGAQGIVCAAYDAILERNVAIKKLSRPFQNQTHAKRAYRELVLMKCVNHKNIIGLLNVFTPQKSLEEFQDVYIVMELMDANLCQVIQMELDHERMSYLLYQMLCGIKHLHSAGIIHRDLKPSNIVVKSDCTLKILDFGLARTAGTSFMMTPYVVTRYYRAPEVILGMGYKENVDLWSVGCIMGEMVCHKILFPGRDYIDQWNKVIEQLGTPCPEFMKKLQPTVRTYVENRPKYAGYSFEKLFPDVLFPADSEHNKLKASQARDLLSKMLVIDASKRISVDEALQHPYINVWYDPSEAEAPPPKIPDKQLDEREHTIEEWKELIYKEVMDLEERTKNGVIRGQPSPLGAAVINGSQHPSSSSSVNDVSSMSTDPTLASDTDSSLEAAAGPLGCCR

Turning to `CN(C)C/C=C/C(=O)Nc1ccc(C(=O)N2CCCC(Nc3ncc(Cl)c(-c4c[nH]c5ccccc45)n3)C2)cc1` (centres undefined), the % of control in [1] is 86%.

`CNC(=O)Nc1ccc(-c2nc(N3CC4CCC(C3)O4)c3cnn(C4CCC5(CC4)OCCO5)c3n2)cc1`: the % of control in assay [2] stood at 89%.

On to `O=C(NOC[C@H](O)CO)c1ccc(F)c(F)c1Nc1ccc(I)cc1F`, for which the % of control in [3] is 91%.

In turn, `COc1cc(N(C)c2ccnc3ccc(C(F)(F)F)cc23)cc(OC)c1OC` came in with a % binding in assay [4] of 100%.

Broadly, the IC50 is the concentration that gives 50% inhibition. Read a high IC50 as weaker potency in that assay. In assay [5], `Nc1cnc(N2CCc3cc(S(=O)(=O)Nc4c(F)cc(Cl)cc4F)cc(N4CCCC4=O)c32)nc1` [TP-020n] returned a 50% inhibitory concentration (IC50) of 530 nM. In addition, in assay [6], the % of control came to 100%.

For `N#Cc1cccc(-c2c[nH]c3ncnc(N4CCOCC4)c23)c1`, in assay [7], the % of control is 100%.

`CCN(CC)CCCCNc1ncc2cc(-c3cc(OC)cc(OC)c3)c(NC(=O)NC(C)(C)C)nc2n1` gave a % of control in assay [8] of 100%.

In the case of `Cc1cc(F)c(C(=O)Nc2cccc(-c3nncn3C(C)C)n2)cc1-n1cnc(C2CC2)c1`, the % of control in [9] came out at 100%.

Turning to `C=CC(=O)Nc1cccc(C(=O)Nc2ccc(Nc3cc(-c4[nH]c(SC)nc4C)ccn3)cc2)c1`, the % of control worked out at 108% in [10] (at 1 µM), 99% in [10] (at 5 µM), 81% in [11] (at 1 µM) and 58% in assay [11] (at 5 µM).

On to `COCC(=O)NC/C=C/c1ccc2ncnc(Nc3ccc(Oc4ccc(C)nc4)c(C)c3)c2c1` [CP-724714], for which the IC50 in assay [12] was > 10 µM.
